Assay results reported in patent US8324133B2, “Fungicide 2-pyridyl-methylene-carboxamide derivatives” (Bayer Cropscience AG, priority 2005, dated 2012).

Assay: logP by HPLC on reversed-phase column (C 18), EEC Directive 79/831 Annex V.A8
Type: physicochemical
Conditions: C 18, 40° C., 0.1% aqueous formic acid and acetonitrile gradient
Method: Temperature: 40° C.; Mobile phases: 0.1% aqueous formic acid and acetonitrile; linear gradient from 10% acetonitrile to 90% acetonitrile.
Calibration was carried out using unbranched alkan-2-ones (comprising 3 to 16 carbon atoms) with known logP values (determination of the logP values by the retention times using linear interpolation between two successive alkanones).

O=C(c1ccco1)N(Cc1ncc(C(F)(F)F)cc1Cl)C1CC1 [Compound 1]
LogP: 3.2

CC(c1ncc(C(F)(F)F)cc1Cl)N(C(=O)c1ccco1)C1CC1 (centres unmarked) [Compound 2]
LogP: 3.6

Cc1ccoc1C(=O)N(Cc1ncc(C(F)(F)F)cc1Cl)C1CC1 [Compound 3]
LogP: 3.78

Cc1ccoc1C(=O)N(C1CC1)C(C)c1ncc(C(F)(F)F)cc1Cl (centres unmarked) [Compound 4]
LogP: 4.22

Cc1cc(C(=O)N(Cc2ncc(C(F)(F)F)cc2Cl)C2CC2)c(C(F)(F)F)o1 [Compound 6]
LogP: 4.26

Cc1cc(C(=O)N(C2CC2)C(C)c2ncc(C(F)(F)F)cc2Cl)c(C(F)(F)F)o1 (centres unmarked) [Compound 7]
LogP: 5.19

Cc1occc1C(=O)N(Cc1ncc(C(F)(F)F)cc1Cl)C1CC1 [Compound 8]
LogP: 3

CC(c1ncc(C(F)(F)F)cc1Cl)N(C(=O)c1sccc1I)C1CC1 (centres unmarked) [Compound 12]
LogP: 5.09

O=C(c1ccsc1I)N(Cc1ncc(C(F)(F)F)cc1Cl)C1CC1 [Compound 15]
LogP: 4.17

CC(c1ncc(C(F)(F)F)cc1Cl)N(C(=O)c1ccsc1I)C1CC1 (centres unmarked) [Compound 16]
LogP: 4.95

Cn1cc(C(=O)N(Cc2ncc(C(F)(F)F)cc2Cl)C2CC2)c(C(F)(F)F)c1 [Compound 17]
LogP: 3.55

Cc1ncoc1C(=O)N(Cc1ncc(C(F)(F)F)cc1Cl)C1CC1 [Compound 20]
LogP: 2.85

Cc1ncoc1C(=O)N(C1CC1)C(C)c1ncc(C(F)(F)F)cc1Cl (centres unmarked) [Compound 21]
LogP: 3.22

Cc1nc(C(=O)N(Cc2ncc(C(F)(F)F)cc2Cl)C2CC2)c(C)o1 [Compound 22]
LogP: 3.11

Cc1nc(C(=O)N(C2CC2)C(C)c2ncc(C(F)(F)F)cc2Cl)c(C)o1 (centres unmarked) [Compound 23]
LogP: 3.46

Cc1nc(C(F)(F)F)c(C(=O)N(Cc2ncc(C(F)(F)F)cc2Cl)C2CC2)s1 [Compound 25]
LogP: 3.86

Cc1nc(C(F)F)c(C(=O)N(Cc2ncc(C(F)(F)F)cc2Cl)C2CC2)s1 [Compound 26]
LogP: 3.41

Cc1nc(C(F)F)c(C(=O)N(C2CC2)C(C)c2ncc(C(F)(F)F)cc2Cl)s1 (centres unmarked) [Compound 27]
LogP: 4.34

Cc1ncc(C(=O)N(Cc2ncc(C(F)(F)F)cc2Cl)C2CC2)s1 [Compound 29]
LogP: 3.15

Cc1nc(C(F)(F)F)c(C(=O)N(C2CC2)C(C)c2ncc(C(F)(F)F)cc2Cl)s1 (centres unmarked) [Compound 30]
LogP: 4.80

Cc1cc(C(=O)N(C2CC2)C(C)c2ncc(C(F)(F)F)cc2Cl)nn1C (centres unmarked) [Compound 33]
LogP: 3.15

CC(c1ncc(C(F)(F)F)cc1Cl)N(C(=O)c1cn(C)nc1C(F)F)C1CC1 (centres unmarked) [Compound 35]
LogP: 3.78

Cn1cc(C(=O)N(Cc2cc(C(F)(F)F)cc(Cl)n2)C2CC2)c(C(F)F)n1 [Compound 37]
LogP: 3.1

COc1nn(C)cc1C(=O)N(Cc1ncc(C(F)(F)F)cc1Cl)C1CC1 [Compound 39]
LogP: 2.43

Cn1cc(C(=O)N(Cc2ncc(C(F)(F)F)cc2Cl)C2CC2)c(C(F)(F)F)n1 [Compound 41]
LogP: 3.26

CC(c1ncc(C(F)(F)F)cc1Cl)N(C(=O)c1cn(C)nc1C(F)(F)F)C1CC1 (centres unmarked) [Compound 42]
LogP: 4.01

Cn1cc(C(=O)N(Cc2ncc(C(F)(F)F)cc2Cl)C2CC2)c(I)n1 [Compound 43]
LogP: 2.82

Cc1nn(C)c(F)c1C(=O)N(C1CC1)C(C)c1ncc(C(F)(F)F)cc1Cl (centres unmarked) [Compound 46]
LogP: 3.67

CCC(c1cc(C(F)(F)F)cc(Cl)n1)N(C(=O)c1c(C)nn(C)c1F)C1CC1 (centres unmarked) [Compound 47]
LogP: 2.95

COC(=O)C(c1ncc(C(F)(F)F)cc1Cl)N(C(=O)c1c(C)nn(C)c1F)C1CC1 (centres unmarked) [Compound 48]
LogP: 2.83

Cc1nn(C)cc1C(=O)N(Cc1ncc(C(F)(F)F)cc1Cl)C1CC1 [Compound 55]
LogP: 2.53

Cc1nn(C)cc1C(=O)N(C1CC1)C(C)c1ncc(C(F)(F)F)cc1Cl (centres unmarked) [Compound 56]
LogP: 2.79

Cn1ncc(C(=O)N(Cc2ncc(C(F)(F)F)cc2Cl)C2CC2)c1Cl [Compound 57]
LogP: 3.92

CCn1nc(C)c(C(=O)N(Cc2ncc(C(F)(F)F)cc2Cl)C2CC2)c1F [Compound 58]
LogP: 3.15

CCc1nn(C)c(F)c1C(=O)N(Cc1ncc(C(F)(F)F)cc1Cl)C1CC1 [Compound 59]
LogP: 3.11

CCOc1nn(C)cc1C(=O)N(Cc1ncc(C(F)(F)F)cc1Cl)C1CC1 [Compound 60]
LogP: 2.75

O=C(c1ccnn1-c1ccccc1)N(Cc1ncc(C(F)(F)F)cc1Cl)C1CC1 [Compound 63]
LogP: 3.55

Cc1cc(C(=O)N(Cc2ncc(C(F)(F)F)cc2Cl)C2CC2)no1 [Compound 64]
LogP: 3.32

Cc1cc(C(=O)N(C2CC2)C(C)c2ncc(C(F)(F)F)cc2Cl)no1 (centres unmarked) [Compound 65]
LogP: 3.63

Cc1noc(C)c1C(=O)N(Cc1ncc(C(F)(F)F)cc1Cl)C1CC1 [Compound 68]
LogP: 3

Cc1onc(-c2ccc(Cl)cc2)c1C(=O)N(Cc1ncc(C(F)(F)F)cc1Cl)C1CC1 [Compound 69]
LogP: 4.48

O=C(c1ccno1)N(Cc1ncc(C(F)(F)F)cc1Cl)C1CC1 [Compound 71]
LogP: 3.72

Cn1cc(C(=O)N(Cc2ncc(C(F)(F)F)cc2Cl)C2CCCC2)c(C(F)F)n1 [Compound 79]
LogP: 3.68

COc1nn(C)cc1C(=O)N(Cc1ncc(C(F)(F)F)cc1Cl)C1CCCC1 [Compound 80]
LogP: 3.32

Cc1nc(C(F)F)c(C(=O)N(Cc2ncc(C(F)(F)F)cc2Cl)C2CCCC2)s1 [Compound 81]
LogP: 4.25

Cn1cc(C(=O)N(Cc2ncc(C(F)(F)F)cc2Cl)C2CCCC2)c(C(F)(F)F)c1 [Compound 82]
LogP: 4.15

Cc1cc(C(=O)N(Cc2ncc(C(F)(F)F)cc2Cl)C2CC(C)CC(C)(C)C2)c(C)o1 (centres unmarked) [Compound 83]
LogP: 5.9
